What follows are compounds tested against Human immunodeficiency virus type 1 reverse transcriptase (Human immunodeficiency virus 1, UniProt Q72547) (assay: Effective concentration against HIV-1 reverse transcriptase).
Type: functional
In the case of `C=CCN1[C@H](C)c2cccc3[nH]c(=S)n(c23)C[C@@H]1C`, the EC50 is reported as 790 nM. With `C=CCN1[C@@H](C)Cn2c(=S)[nH]c3cccc(c32)[C@@H]1C` the EC50 was 39 nM. In the case of `C=CCN1Cc2c(Cl)ccc3[nH]c(=S)n(c23)C[C@@H]1C`, the EC50 is reported as 4.6 nM. `CC(C)=CCN1Cc2cc(Cl)cc3[nH]c(=S)n(c23)C[C@@H]1C` was tested, and the EC50 was 33 nM. `C=CCN1Cc2c(C)ccc3[nH]c(=S)n(c23)C[C@@H]1C` gave an EC50 of 14 nM. Compound `C=CCN1Cc2cccc3[nH]c(=O)n(c23)C[C@@H]1C` has an EC50 of 4200 nM. `CC(C)=CCN1Cc2cccc3[nH]c(=S)n(c23)C[C@@H]1C` was tested, and the EC50 was 44 nM. Compound `CC(C)=CCN1Cc2c(Cl)ccc3[nH]c(=S)n(c23)C[C@@H]1C` [TIVIRAPINE] has an EC50 of 5.1 nM.

From ChEMBL document CHEMBL1132191, “Prediction of the binding free energies of new TIBO-like HIV-1 reverse transcriptase inhibitors using a combination of PROFEC, PB/SA, CMC/MD, and free energy calculations” (J Med Chem, 1999)
